Experimental data reported in ChEMBL document CHEMBL5046266, “Synthesis and Evaluation of Structurally Diverse C-2-Substituted Thienopyrimidine-Based Inhibitors of the Human Geranylgeranyl Pyrophosphate Synthase” (J Med Chem, 2022).
pEC50, pIC50: −log10 of the molar value.

What was measured:
[1] = target: T1, Farnesyl pyrophosphate synthase (Homo sapiens) (UniProt P14324); experiment: Inhibition of human FPPS expressed in Escherichia coli BL21 (DE3) at 1 uM preincubated for 10 mins in presence compound relative to control
T1 sequence (whole entry): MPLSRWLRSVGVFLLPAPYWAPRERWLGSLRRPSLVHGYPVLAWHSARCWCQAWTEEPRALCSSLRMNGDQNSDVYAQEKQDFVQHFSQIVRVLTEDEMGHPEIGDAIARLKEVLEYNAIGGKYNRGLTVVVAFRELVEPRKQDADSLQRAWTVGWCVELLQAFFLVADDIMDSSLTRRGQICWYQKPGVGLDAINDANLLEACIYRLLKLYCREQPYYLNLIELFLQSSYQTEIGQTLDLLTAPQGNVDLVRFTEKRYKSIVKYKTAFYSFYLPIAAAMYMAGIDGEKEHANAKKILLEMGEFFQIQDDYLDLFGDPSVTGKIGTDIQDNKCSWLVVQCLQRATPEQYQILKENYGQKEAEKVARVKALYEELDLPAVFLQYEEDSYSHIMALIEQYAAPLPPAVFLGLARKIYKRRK

[2] = target: T2, Geranylgeranyl pyrophosphate synthase (Homo sapiens, UniProt O95749)
T2 sequence (O95749 whole entry): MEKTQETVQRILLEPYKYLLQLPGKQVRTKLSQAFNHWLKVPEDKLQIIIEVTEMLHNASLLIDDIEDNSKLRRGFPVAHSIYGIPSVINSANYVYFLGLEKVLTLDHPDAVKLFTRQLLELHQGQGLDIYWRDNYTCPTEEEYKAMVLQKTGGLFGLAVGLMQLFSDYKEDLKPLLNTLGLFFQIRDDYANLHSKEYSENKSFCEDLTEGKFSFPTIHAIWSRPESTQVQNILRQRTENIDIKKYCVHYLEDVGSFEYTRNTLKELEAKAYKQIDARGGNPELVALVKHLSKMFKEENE

[3] = tested on: RPMI-8226; experiment: cells; conditions: Homo sapiens, RPMI-8226, 72 h
[4] = target: T3, Farnesyl pyrophosphate synthase (Homo sapiens, UniProt P14324)
T3 sequence (P14324 whole entry): T1 sequence (whole entry)

[5] = in vitro; conditions: human, bone marrow mononuclear cells

SMILES | inhibition [1] | pIC50 [2] | pEC50 [3] | pIC50 [4] | viability at 72 h, 0.05 µM [5]
O=C(Cc1cccnc1)Nc1cccc(-c2nc(NC(P(=O)(O)O)P(=O)(O)O)c3ccsc3n2)c1 | 60% | 7.15 | 5.92 |  | 
COc1ccc(NS(=O)(=O)c2cccc(-c3nc(NC(P(=O)(O)O)P(=O)(O)O)c4ccsc4n3)c2)cc1F | 25% | 7.64 | 5.30 |  | 
CO[C@@H](C(=O)Nc1cccc(-c2nc(NC(P(=O)(O)O)P(=O)(O)O)c3ccsc3n2)c1)c1ccccc1 | 48% | 7.41 | 6.04 |  | 
COc1ccc(NC(=O)Nc2cccc(-c3nc(NC(P(=O)(O)O)P(=O)(O)O)c4ccsc4n3)c2)cc1F |  | 7.47 | 5.89 |  | 
O=C(Nc1ccc(F)cc1)Nc1cccc(-c2nc(NC(P(=O)(O)O)P(=O)(O)O)c3ccsc3n2)c1 | 90% | 7.39 | 5.39 |  | 
COc1ccc([C@@H](OC(C)C)C(=O)Nc2cccc(-c3nc(NC(P(=O)(O)O)P(=O)(O)O)c4ccsc4n3)c2)cc1F |  | 7.70 | < 5.30 | 6.14 | 
COc1ccc(S(=O)(=O)Nc2cccc(-c3nc(NC(P(=O)(O)O)P(=O)(O)O)c4ccsc4n3)c2)cc1F | 40% | 7.62 | 5.33 |  | 
Cc1ccc(NC(=O)c2cccc(-c3nc(NC(P(=O)(O)O)P(=O)(O)O)c4ccsc4n3)c2)cc1Br | 12% | 7.82 | 6.79 |  | 
COc1ccc([C@H](OC(C)C)C(=O)Nc2cccc(-c3nc(NC(P(=O)(O)O)P(=O)(O)O)c4ccsc4n3)c2)cc1F |  | 7.77 | 6.06 | 6.34 | 
CO[C@H](C(=O)Nc1cccc(-c2nc(NC(P(=O)(O)O)P(=O)(O)O)c3ccsc3n2)c1)c1ccccc1 | 55% | 7.42 | 6.41 |  | 
O=P(O)(O)C(Nc1nc(-c2ccccc2)nc2sccc12)P(=O)(O)O |  | 7.43 | < 5.00 |  | 
CC(C)C[C@H](NC(=O)[C@H](Cc1ccccc1)NC(=O)c1cnccn1)B(O)O [BORTEZOMIB] |  |  |  |  | 40.1%
COc1ccc(C(=O)Nc2cccc(-c3nc(NC(P(=O)(O)O)P(=O)(O)O)c4ccsc4n3)c2)cc1Br | 40% | 7.44 | < 6.30 |  | 
CC(C)O[C@H](C(=O)Nc1cccc(-c2nc(NC(P(=O)(O)O)P(=O)(O)O)c3ccsc3n2)c1)c1ccccc1 | 35% | 7.68 | 6.87 |  | 
Cc1ccc(S(=O)(=O)Nc2cccc(-c3nc(NC(P(=O)(O)O)P(=O)(O)O)c4ccsc4n3)c2)cc1F | 30% | 7.64 | 5.11 |  | 
Cc1ccc(NC(=O)c2cccc(-c3nc(NC(P(=O)(O)O)P(=O)(O)O)c4ccsc4n3)c2)cc1F | 28% | 7.51 | 6.89 |  | 
Cc1ccc(C(=O)Nc2cccc(-c3nc(NC(P(=O)(O)O)P(=O)(O)O)c4ccsc4n3)c2)cc1F | 35% | 7.68 | 6.54 |  | 
O=C(Nc1cccc(-c2nc(NC(P(=O)(O)O)P(=O)(O)O)c3ccsc3n2)c1)c1ccc(F)cc1 | 30% | 7.60 |  |  | 
O=C(Cc1ccccc1)Nc1cccc(-c2nc(NC(P(=O)(O)O)P(=O)(O)O)c3ccsc3n2)c1 | 55% | 7.64 | 6.13 |  | 
CC(C)O[C@@H](C(=O)Nc1cccc(-c2nc(NC(P(=O)(O)O)P(=O)(O)O)c3ccsc3n2)c1)c1ccccc1 |  | 7.64 | 6.04 |  | 
O=C(Nc1cccc(-c2nc(NC(P(=O)(O)O)P(=O)(O)O)c3ccsc3n2)c1)c1ccc(C(F)(F)F)cc1 | 40% | 7.74 | 6.15 |  | 
CC(C)C[C@H](NC(=O)[C@H](CCc1ccccc1)NC(=O)CN1CCOCC1)C(=O)N[C@@H](Cc1ccccc1)C(=O)N[C@@H](CC(C)C)C(=O)[C@@]1(C)CO1 [CARFILZOMIB] |  |  |  |  | 43.6%
O=C(Nc1cccc(-c2nc(NC(P(=O)(O)O)P(=O)(O)O)c3ccsc3n2)c1)c1ccccc1 | 40% | 7.72 | < 6.30 |  | 
O=C(Nc1cccc(-c2nc(NC(P(=O)(O)O)P(=O)(O)O)c3ccsc3n2)c1)c1ccc(C(F)(F)F)cn1 | 60% | 7.28 | 4.67 |  | 
COc1ccc(C(=O)Nc2cccc(-c3nc(NC(P(=O)(O)O)P(=O)(O)O)c4ccsc4n3)c2)cc1F | 60% | 7.54 | 6.34 |  | 
O=C(Nc1ccccc1)c1cccc(-c2nc(NC(P(=O)(O)O)P(=O)(O)O)c3ccsc3n2)c1 |  | 7.39 |  |  | 
